Laboratory results taken from PubChem BioAssay (NCI).
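Method: 48-hour compound exposure of cells in 96-well plates, five concentrations, linear interpolation of endpoints. GI50 marks 50% less growth. TGI denotes the concentration required for complete inhibition of growth.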

Key:
Experiment in all cases: NCI tumour cell line growth inhibition, 48 h
UO-31 renal = tested on: UO-31 renal
DU-145 prostate = tested on: DU-145 prostate
SK-MEL-5 melanoma = tested on: SK-MEL-5 melanoma
BT-549 breast = tested on: BT-549 breast
CCRF-CEM leukemia = tested on: CCRF-CEM leukemia
M14 melanoma = tested on: M14 melanoma
NCI-H23 lung = tested on: NCI-H23 lung
HT29 colon = tested on: HT29 colon
A498 renal = tested on: A498 renal
TK-10 renal = tested on: TK-10 renal
SNB-75 CNS = tested on: SNB-75 CNS
MALME-3M melanoma = tested on: MALME-3M melanoma
MOLT-4 leukemia = tested on: MOLT-4 leukemia
SW-620 colon = tested on: SW-620 colon
SNB-19 CNS = tested on: SNB-19 CNS
RXF 393 renal = tested on: RXF 393 renal
UACC-257 melanoma = tested on: UACC-257 melanoma
RPMI-8226 leukemia = tested on: RPMI-8226 leukemia
T-47D breast = tested on: T-47D breast
OVCAR-8 ovarian = tested on: OVCAR-8 ovarian
A549 NSCLC = tested on: A549 NSCLC
LOX IMVI melanoma = tested on: LOX IMVI melanoma
HS 578T breast = tested on: HS 578T breast
NCI-H522 lung = tested on: NCI-H522 lung
HCT-15 colon = tested on: HCT-15 colon
HCC-2998 colon = tested on: HCC-2998 colon
SN12C renal = tested on: SN12C renal
NCI/ADR-RES ovarian = tested on: NCI/ADR-RES ovarian
OVCAR-5 ovarian = tested on: OVCAR-5 ovarian
IGROV1 ovarian = tested on: IGROV1 ovarian
HOP-92 NSCLC = tested on: HOP-92 NSCLC
EKVX NSCLC = tested on: EKVX NSCLC
PC-3 prostate = tested on: PC-3 prostate
KM12 colon = tested on: KM12 colon
NCI-H460 lung = tested on: NCI-H460 lung
CAKI-1 renal = tested on: CAKI-1 renal
HL-60(TB) leukemia = tested on: HL-60(TB) leukemia
SF-539 CNS = tested on: SF-539 CNS
MCF7 breast = tested on: MCF7 breast
K-562 leukemia = tested on: K-562 leukemia
UACC-62 melanoma = tested on: UACC-62 melanoma
SR leukemia = tested on: SR leukemia
HOP-62 NSCLC = tested on: HOP-62 NSCLC
MDA-MB-231 breast = tested on: MDA-MB-231 breast
SK-OV-3 ovarian = tested on: SK-OV-3 ovarian
ACHN renal = tested on: ACHN renal
HCT-116 colon = tested on: HCT-116 colon
SF-268 CNS = tested on: SF-268 CNS
SK-MEL-2 melanoma = tested on: SK-MEL-2 melanoma
OVCAR-3 ovarian = tested on: OVCAR-3 ovarian
786-0 renal = tested on: 786-0 renal
SF-295 CNS = tested on: SF-295 CNS
U251 CNS = tested on: U251 CNS
COLO 205 colon = tested on: COLO 205 colon
SK-MEL-28 melanoma = tested on: SK-MEL-28 melanoma
OVCAR-4 ovarian = tested on: OVCAR-4 ovarian
MDA-MB-435 = tested on: MDA-MB-435
NCI-H226 lung = tested on: NCI-H226 lung

## CN1CCN(Cc2ccc(NC(=O)c3cncc(C#Cc4cnc5ccc(OCCCS(C)(=O)=O)nn45)c3)cc2C(F)(F)F)CC1
UO-31 renal
  GI50: 1330 nM
  TGI: 3.77 µM
DU-145 prostate
  GI50: 691 nM
  TGI: 3.79 µM
SK-MEL-5 melanoma
  GI50: 775 nM
  TGI: 1740 nM
BT-549 breast
  GI50: 469 nM
  TGI: 1390 nM
CCRF-CEM leukemia
  GI50: 213 nM
  TGI: 22.4 µM
M14 melanoma
  GI50: 171 nM
  TGI: 701 nM
NCI-H23 lung
  GI50: 420 nM
  TGI: 1560 nM
HT29 colon
  GI50: 475 nM
  TGI: 1890 nM
A498 renal
  GI50: 863 nM
  TGI: 1620 nM
TK-10 renal
  GI50: 1130 nM
  TGI: 2940 nM
SNB-75 CNS
  GI50: 338 nM
  TGI: 1130 nM
MALME-3M melanoma
  GI50: 128 nM
  TGI: 576 nM
MOLT-4 leukemia
  GI50: 272 nM
  TGI: 3.71 µM
SW-620 colon
  GI50: 193 nM
  TGI: 1050 nM
SNB-19 CNS
  GI50: 1290 nM
  TGI: 4.46 µM
RXF 393 renal
  GI50: 803 nM
  TGI: 1630 nM
UACC-257 melanoma
  GI50: 1030 nM
  TGI: 3.47 µM
RPMI-8226 leukemia
  GI50: 1190 nM
  TGI: 3.41 µM
T-47D breast
  GI50: 783 nM
  TGI: 12.2 µM
OVCAR-8 ovarian
  GI50: 1000 nM
  TGI: 4.33 µM
A549 NSCLC
  GI50: 1090 nM
  TGI: 5.93 µM
LOX IMVI melanoma
  GI50: 305 nM
  TGI: 1020 nM
HS 578T breast
  GI50: 318 nM
  TGI: 1660 nM
NCI-H522 lung
  GI50: 460 nM
  TGI: 1280 nM
HCT-15 colon
  GI50: 1340 nM
  TGI: 4.26 µM
HCC-2998 colon
  GI50: 687 nM
  TGI: 2750 nM
SN12C renal
  GI50: 415 nM
  TGI: 2200 nM
NCI/ADR-RES ovarian
  GI50: 8.49 µM
  TGI: 34.1 µM
OVCAR-5 ovarian
  GI50: 892 nM
  TGI: 4.57 µM
IGROV1 ovarian
  GI50: 258 nM
  TGI: 2450 nM
HOP-92 NSCLC
  GI50: 101 nM
  TGI: 393 nM
EKVX NSCLC
  GI50: 1120 nM
  TGI: 4.28 µM
PC-3 prostate
  GI50: 873 nM
  TGI: 4.97 µM
KM12 colon
  GI50: 5 nM
  TGI: 1400 nM
NCI-H460 lung
  GI50: 311 nM
  TGI: 953 nM
CAKI-1 renal
  GI50: 459 nM
  TGI: 2680 nM
HL-60(TB) leukemia
  GI50: 229 nM
  TGI: 802 nM
SF-539 CNS
  GI50: 164 nM
  TGI: 906 nM
MCF7 breast
  GI50: 213 nM
  TGI: 2830 nM
K-562 leukemia
  GI50: 12.3 nM
  TGI: 2170 nM
UACC-62 melanoma
  GI50: 571 nM
  TGI: 1520 nM
SR leukemia
  GI50: 207 nM
  TGI: 1470 nM
HOP-62 NSCLC
  GI50: 833 nM
  TGI: 2760 nM
MDA-MB-231 breast
  GI50: 166 nM
  TGI: 1050 nM
SK-OV-3 ovarian
  GI50: 868 nM
  TGI: 3.47 µM
ACHN renal
  GI50: 1390 nM
  TGI: 4.46 µM
HCT-116 colon
  GI50: 67.3 nM
  TGI: 594 nM
SF-268 CNS
  GI50: 690 nM
  TGI: 1720 nM
SK-MEL-2 melanoma
  GI50: 216 nM
  TGI: 783 nM
OVCAR-3 ovarian
  GI50: 795 nM
  TGI: 3.04 µM
786-0 renal
  GI50: 359 nM
  TGI: 1170 nM
SF-295 CNS
  GI50: 1090 nM
  TGI: 4.77 µM
U251 CNS
  GI50: 554 nM
  TGI: 2610 nM
COLO 205 colon
  GI50: 377 nM
  TGI: 1150 nM
SK-MEL-28 melanoma
  GI50: 796 nM
  TGI: 2550 nM
OVCAR-4 ovarian
  GI50: 547 nM
  TGI: 1930 nM
MDA-MB-435
  GI50: 221 nM
  TGI: 1000 nM
NCI-H226 lung
  GI50: 131 nM
  TGI: 1030 nM
